2 substances from PMC7615250 (Cell reports, 2023) can be followed below.

For one test, the system named is NPR-34. In words: Aequorin-based calcium mobilization assay. The format is cell-based, C. elegans. The conditions noted are these: CHO/mtAEQ/Gα16 cells expressing NPR-34; aequorin luminescence; n ≥ 6. A general note: Calcium flux is commonly read through the fluorescence of an indicator in the cells.
The target in a further test is SEB-2 (Caenorhabditis elegans, UniProt P30650). It counts as cell-based, C. elegans. The settings on record: n ≥ 6.
Chain of SEB-2 (P30650 whole entry, looked up): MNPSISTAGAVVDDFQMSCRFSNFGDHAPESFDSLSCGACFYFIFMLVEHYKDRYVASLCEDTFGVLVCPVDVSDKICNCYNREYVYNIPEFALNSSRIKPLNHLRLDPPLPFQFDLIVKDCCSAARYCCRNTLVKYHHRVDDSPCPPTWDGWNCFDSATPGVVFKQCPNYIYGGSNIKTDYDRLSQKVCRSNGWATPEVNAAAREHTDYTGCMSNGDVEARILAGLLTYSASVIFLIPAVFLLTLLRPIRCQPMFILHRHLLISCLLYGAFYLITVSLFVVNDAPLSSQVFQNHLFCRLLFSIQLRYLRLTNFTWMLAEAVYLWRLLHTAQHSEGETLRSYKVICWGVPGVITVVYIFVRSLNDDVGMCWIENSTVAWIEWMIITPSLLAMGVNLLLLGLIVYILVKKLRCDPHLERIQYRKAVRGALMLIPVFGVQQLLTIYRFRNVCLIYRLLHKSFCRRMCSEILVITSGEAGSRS

In the case of “LDCRKFSFAPACRGIML; C3–C12 (disulfide) [SNET-1]”, the “receptor activation (calcium response)” value with NPR-34 is listed as “activate”.
Turning to “NRQCLLNAGLSQGCDFSDLLHAQTQARKFMSFAGPamide; C4–C14 (disulfide) [NLP-73]”, at SEB-2, the “receptor activation (calcium response)” value was “activate”.
